Our source for the GI50 and TGI values is PubChem BioAssay (NCI).

Among the test systems are LOX IMVI melanoma; EKVX NSCLC; SK-MEL-28 melanoma; T-47D breast; UO-31 renal; TK-10 renal; HOP-92 NSCLC; HL-60(TB) leukemia; SW-620 colon; SF-539 CNS.
What all share (assay): inhibition of tumour cell growth, NCI panel, 48 h

SMILES strings stand for the structures.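 1) Cells in 96-well plates. 2) Compound, 48 h, 5 concentrations. 3) Linear interpolation between surrounding doses. 4) Unreached endpoint = highest concentration. Here, GI50 denotes the concentration required for 50% inhibition of growth. TGI is the concentration that stops growth completely.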

On to `OCC(O)C(O)C(O)/C=N/Nc1nc2ccccc2nc1-c1ccccc1` (centres undefined), for which the GI50 with LOX IMVI melanoma was 72.2 µM; in the experiment on EKVX NSCLC it was above 100 µM; in the experiment on SK-MEL-28 melanoma, above 100 µM; in the experiment with T-47D breast, 41.5 µM; with UO-31 renal it was above 100 µM; in the experiment with TK-10 renal, above 100 µM. Also, the GI50 is 60.1 µM in the experiment on HOP-92 NSCLC, 5.15 µM in the experiment with HL-60(TB) leukemia, above 100 µM in the experiment on SW-620 colon and 20.5 µM in the experiment on SF-539 CNS. In addition, the TGI in the experiment with LOX IMVI melanoma, in the experiment on EKVX NSCLC, in the experiment on SK-MEL-28 melanoma, with T-47D breast, in the experiment on UO-31 renal and in the experiment on TK-10 renal was above 100 µM in each case. The TGI with HOP-92 NSCLC, in the experiment on HL-60(TB) leukemia, in the experiment on SW-620 colon and with SF-539 CNS was above 100 µM in each case.
As for `COc1ccc(OC)c2c(=S)c3ccccc3[nH]c12`, the TGI in the experiment on LOX IMVI melanoma is above 100 µM; with EKVX NSCLC it was above 100 µM; in the experiment on SK-MEL-28 melanoma, above 100 µM; in the experiment on T-47D breast, above 100 µM; in the experiment with UO-31 renal, above 100 µM; with TK-10 renal, 100 µM. Besides, the TGI with HOP-92 NSCLC is above 100 µM; with HL-60(TB) leukemia it was 57.6 µM; in the experiment on SW-620 colon, above 100 µM; in the experiment on SF-539 CNS, above 100 µM.
Turning to `NC(=O)c1ccc2nc3c(n2c1)C(=O)C(=O)c1ccccc1-3`, the GI50 is 0.264 µM in the experiment with LOX IMVI melanoma; 1.65 µM with EKVX NSCLC; 1.07 µM in the experiment on SK-MEL-28 melanoma; 0.415 µM with T-47D breast; 1.47 µM in the experiment with UO-31 renal; 1.82 µM in the experiment with TK-10 renal. For the same molecule, the GI50 was 1.77 µM in the experiment with HOP-92 NSCLC, 2.12 µM in the experiment with HL-60(TB) leukemia, 1.88 µM with SW-620 colon and 0.621 µM with SF-539 CNS. The TGI in the experiment with LOX IMVI melanoma was found to be 0.787 µM; in the experiment on EKVX NSCLC, 3.01 µM; in the experiment with SK-MEL-28 melanoma, 2.29 µM; with T-47D breast, 2.54 µM; with UO-31 renal, 2.79 µM; with TK-10 renal, 3.23 µM. Further, the TGI amounted to 3.33 µM in the experiment with HOP-92 NSCLC, 5.18 µM in the experiment with HL-60(TB) leukemia, 4.05 µM in the experiment with SW-620 colon and 1.85 µM in the experiment with SF-539 CNS.
As for `NC1=Nc2cc(OCCCN3Cc4ccccc4C3)c(OCC3CC3)cc2C12CCCC2`, the GI50 with LOX IMVI melanoma is 1.51 µM; in the experiment with EKVX NSCLC it was 3.18 µM; in the experiment with SK-MEL-28 melanoma, 1.84 µM; in the experiment with T-47D breast it was 1.82 µM; in the experiment on UO-31 renal, 1.49 µM; in the experiment on TK-10 renal it was 2.31 µM. In addition, the GI50 with HOP-92 NSCLC was 0.718 µM; in the experiment with HL-60(TB) leukemia, 2.03 µM; in the experiment with SW-620 colon it was 2.07 µM; in the experiment with SF-539 CNS, 1.7 µM. Besides, the TGI in the experiment on LOX IMVI melanoma stood at 2.91 µM; with EKVX NSCLC, 11.8 µM; with SK-MEL-28 melanoma it was 3.46 µM; in the experiment on T-47D breast, 4.54 µM; in the experiment with UO-31 renal, 3.14 µM; in the experiment on TK-10 renal, 8.16 µM. Moreover, the TGI in the experiment on HOP-92 NSCLC came to 3.14 µM; in the experiment with HL-60(TB) leukemia it was 4.69 µM; with SW-620 colon it was 4.88 µM; in the experiment on SF-539 CNS, 3.17 µM.
`O=C1CS/C(=N\S(=O)(=O)c2ccc(N3N=C4c5ccccc5CC4C3c3ccc(Cl)cc3)cc2)N1c1ccccc1` (centres undefined): the GI50 was 23.4 µM with LOX IMVI melanoma; 43.2 µM in the experiment with EKVX NSCLC; 41.7 µM with T-47D breast; 29.1 µM in the experiment with UO-31 renal; 29.7 µM in the experiment with TK-10 renal; 27 µM with HOP-92 NSCLC. Besides, the GI50 is 23.1 µM with HL-60(TB) leukemia, 37.4 µM in the experiment on SW-620 colon and 60.2 µM with SF-539 CNS. Moreover, the TGI in the experiment with LOX IMVI melanoma was 49.1 µM; in the experiment on EKVX NSCLC, above 100 µM; in the experiment on T-47D breast it was above 100 µM; in the experiment on UO-31 renal, above 100 µM; with TK-10 renal, above 100 µM; with HOP-92 NSCLC it was above 100 µM. Further, the TGI in the experiment on HL-60(TB) leukemia is 48.7 µM; with SW-620 colon it was above 100 µM; in the experiment on SF-539 CNS it was above 100 µM.
In the case of `COc1ccc(/C=C/NC=O)cc1`, the TGI in the experiment with LOX IMVI melanoma, with EKVX NSCLC, in the experiment on SK-MEL-28 melanoma, in the experiment with T-47D breast, in the experiment with UO-31 renal and with TK-10 renal was above 100 µM in each case. The TGI in the experiment on HL-60(TB) leukemia, in the experiment with SW-620 colon and in the experiment on SF-539 CNS was above 100 µM in each case.
For `CC1(C)CC2(C)CC1CC2NC(=O)CCN1CCOCC1` (centres undefined), the TGI in the experiment on EKVX NSCLC, in the experiment with SK-MEL-28 melanoma, in the experiment on T-47D breast, with UO-31 renal, in the experiment on TK-10 renal and with HOP-92 NSCLC was above 100 µM each time. Moreover, the TGI with HL-60(TB) leukemia, in the experiment on SW-620 colon and with SF-539 CNS was above 100 µM throughout.
With `CCOC(=O)CSc1[nH]c(NC(=S)Nc2ccccc2)c(C(N)=O)c1C(N)=O`, the TGI in the experiment with LOX IMVI melanoma, in the experiment with EKVX NSCLC, in the experiment on SK-MEL-28 melanoma, in the experiment on T-47D breast, in the experiment with TK-10 renal and in the experiment on HOP-92 NSCLC was above 10 µM each time. For the same molecule, the figures for the TGI in the experiment with HL-60(TB) leukemia and in the experiment on SW-620 colon were 4.78 µM and above 10 µM, respectively.
